Assay results from publication PMC9855884, “Glycosylated Lipopeptides—Synthesis and Evaluation of Antimicrobial Activity and Cytotoxicity” (Biomolecules, 2023).
Converted amounts (≈) assume the structure as drawn. Where a SMILES comes first, the peptide text is derived from it. The star is where a group is joined. βGlcNAc = CC(=O)N[C@@H]1[C@@H](O)[C@H](O)[C@@H](CO)O[C@H]1*; Stearoyl = CCCCCCCCCCCCCCCCCC(=O)*

Experiments:
C. glabrata biofilm = type: cell-based, Candida glabrata; settings: 24 h
Protocol: (§1) The Acinetobacter baumannii ATCC BAA-1605, Enterococcus faecium ATCC 700221, Klebsiella aerogenes ATCC 13048, Klebsiella pneumoniae ATCC 700603, Pseudomonas aeruginosa ATCC 9027, Staphylococcus aureus ATCC 33591, Candida glabrata ATCC 15126, strains were acquired from the American Type Culture Collection (ATCC). All the strains were stored at −80 °C in Roti-Store cryo vials and were transferred into fresh Mueller–Hinton broth (MHB, Becton Dickinson, Warsaw, Poland) for bacteria or RPMI-1640 (Sigma-Aldrich, Steinheim, Germany) for fungi before the tests and incubated for 24 h at 37 °C. Then, the cultures were seeded on the Mueller–Hinton agar (BioMaxima, Lublin, Poland) or Sabouraud dextrose agar (SDA, BioMaxima, Lublin, Poland) plates, respectively, and incubated as just mentioned. These agar cultures were used for further microbiological assays. Cell densities for all assays were adjusted spectrophotometrically (Multiskan GO Microplate Spectrophotometer, Thermo Fisher Scientific, Vantaa, Finland) at 600 and 530 nm for bacteria and fungi, respectively.
(§2) The MBECs were determined as previously described, using 96-well polystyrene flat-bottom plates. For this purpose, 24 h cultures of microorganisms were diluted to obtain a final density of 5.0 × 10^5 CFU/mL and 2.0 × 10^5 CFU/mL of bacteria and fungi, respectively. Microorganisms were diluted in MHB or RPMI-1640 with 2% D-glucose (bacteria and fungi, respectively). Briefly, 100 µL of cell suspension was added into the test plates. After 24 h of incubation at 37 °C, the wells were rinsed three times with a phosphate buffer saline (PBS, pH 7.4) to remove non-adherent cells. Subsequently, 100 μL of the test compounds over the concentration range (1–512 μg/mL) were added to each well. After 24 h of incubation at 37 °C, 20 μL of a cell viability reagent was added (resazurin, 4 g/L; Sigma Aldrich, St. Louis, MO, USA). The MBEC was read after 1 h. The determined values were recorded as the lowest concentration at which the reduction of resazurin (from blue to pink) […]. All experiments were conducted in triplicate.

A. baumannii biofilm = type: cell-based, Acinetobacter baumannii; settings: 24 h
Protocol: as §1, §2

K. pneumoniae biofilm = type: cell-based, Klebsiella pneumoniae; settings: 24 h
Protocol: as §1, §2

[1] = test system: human red blood cells (RBCs); assay: Hemolysis assay; type: cell-based; settings: human RBCs 4% (v/v) in PBS, 60 min, 37 °C, absorbance 540 nm, 1–512 µg/mL; triplicate
Protocol: The hemolysis assay was conducted using a procedure described previously. For this purpose, fresh human red blood cells (RBCs) with EDTA anticoagulant were washed three times with phosphate-buffer saline (PBS) using centrifugation at 800× g for 10 min and resuspended in PBS. Then, the stock solution of RBCs was added to serial dilution of peptides on 96-well polystyrene plates to reach a final volume of 100 µL with 4% concentration of erythrocytes (v/v) over the concentration range of 1–512 µg/mL of the tested compounds. The control wells for the 0% and 100% hemolysis consisted of RBCs suspended in PBS and 1% of Triton X–100, respectively. Subsequently, the plates were incubated for 60 min at 37 °C and then centrifuged at 800× g for 10 min at 4 °C (Sorvall ST 16R Centrifuge, Thermo Scientific, Osterode am Harz, Germany). After centrifugation, the supernatant was carefully […] to new microtiter plates and the release of hemoglobin was monitored through absorbance measurements at 540 nm (Multiskan™ GO Microplate Spectrophotometer, Thermo Scientific). All experiments were conducted in triplicate.
The lipopeptides were tested against human erythrocytes in order to evaluate their hemolytic activity. Moreover, selectivity indexes (SI) were calculated by dividing the HC50 by MIC. […] In some cases, glycosylation led to suppressed toxicity, e.g., a comparison of C14 peptides analogs: 1–3 and 10–12. On the other hand, an increase in toxicity of C18 analogs (7–9 vs. 16–18) was found for glycosylated USCLs. For this reason, SI was calculated to provide a correlation between antimicrobial activity and toxicity. […] Among gUSCLs: 10 and 11 with C14 fatty acid and 16–18 should be highlighted owing to their high selectivity against E. fecium and C. glabrata.

P. aeruginosa ATCC 9027 = type: cell-based, Pseudomonas aeruginosa; settings: ATCC 9027, 18 h
Protocol: as §1
(§3) The MICs were determined using a broth microdilution method according to the Clinical and Laboratory Standard Institute guidelines. For this purpose, initial inoculums of bacteria (5 × 10^5 CFU/mL) in MHB and yeasts (2 × 10^3 CFU/mL) in RPMI-1640 with 2% D-glucose were exposed to the ranging concentration of lipopeptides (1–512 μg/mL) and incubated at 37 °C for 18 h and 24 h, respectively. The experiments were conducted on 96-well microtiter polystyrene plates (Kartell, Italy). The growth was assessed visually after incubation and the MIC was assumed as the lowest peptide concentration at which a noticeable growth of microorganisms was inhibited. All experiments were conducted in triplicate.

S. aureus ATCC 33591 = type: cell-based, Staphylococcus aureus; settings: ATCC 33591, 18 h
Protocol: as §1, §3

S. aureus biofilm = type: cell-based, Staphylococcus aureus; settings: 24 h
Protocol: as §1, §2

[2] = test system: K. pneumoniae ATCC 700603; type: cell-based, Klebsiella pneumoniae; settings: ATCC 700603, 18 h
Protocol: as §1, §3

[3] = Determination of peptide hydrophobicity with RP-HPLC (adjusted retention time); type: physicochemical; settings: RP-HPLC as measure of hydrophobicity; Waters X-Bridge Shield RP-18 3.0 × 100 mm, 3.5 μm; linear 20–80% acetonitrile in water over 30 min, 0.1% TFA; 0.5 mL/min; 25.0 °C; peptide 1 g/L in water (0.1% TFA); UV 214 nm; triplicate
Protocol: To determine peptide hydrophobicity, a Waters Alliance e2695 system with a Waters 2998 PDA Detector was used. All analyses were carried out on a Waters X-Bridge Shield RP-18 column (3.0 × 100 mm, 3.5 μm particle size, 130 Å pore size). The peptides were dissolved in water (0.1% TFA, v/v) up to a concentration of 1 g/L. UV detection at 214 nm was used, and samples (10 μL) were eluted with a linear 20–80% acetonitrile gradient in deionized water over 30 min at 25.0 ± 0.1 °C. The mobile phase flow rate was 0.5 mL/min. Both eluents contained 0.1% (v/v) of TFA. Each peptide sample was analyzed in triplicate. Maximum standard deviation and coefficient of variation were 0.046 and 0.23%, respectively.
After synthesis and purification, all the products were analyzed with MS and HPLC to confirm purity and identity of the compounds. […] The chromatographic analyses were performed with RP-HPLC; retention time refers to hydrophobicity of the lipopeptide.

SMILES	MBEC (C. glabrata biofilm) [µg/mL]	MBEC (A. baumannii biofilm) [µg/mL]	MBEC (K. pneumoniae biofilm) [µg/mL]	HC50 (hemolytic activity) [1] [µg/mL]	MIC (P. aeruginosa ATCC 9027) [µg/mL]	MIC (S. aureus ATCC 33591) [µg/mL]	MBEC (S. aureus biofilm) [µg/mL]	MIC [2] [µg/mL]	Adjusted Retention Time [3] [min]
CCCCCCCCCCCCCCCCCC(=O)N[C@@H](CCCNC(=N)N)C(=O)N[C@@H](CO)C(=O)N[C@@H](CCCNC(=N)N)C(N)=O [Peptide 8, C18-RSR-NH2] (Stearoyl-Arg-Ser-Arg-NH2)	128	512	512	335.12 ± 73.39	64 (≈ 93.7 µM)	16 (≈ 23.4 µM)	256	32 (≈ 46.9 µM)	24.13
CCCCCCCCCCCCCCCCCC(=O)N[C@@H](CCCNC(=N)N)C(=O)N[C@@H](CCCNC(=N)N)C(=O)N[C@@H](CO)C(N)=O [Peptide 9, C18-RRS-NH2] (Stearoyl-Arg-Arg-Ser-NH2)	128	512	512	94.31 ± 2.64	64 (≈ 93.7 µM)	8 (≈ 11.7 µM)	256	16 (≈ 23.4 µM)	24.04
CCCCCCCCCCCCCCCCCC(=O)N[C@@H](CO[C@@H]1O[C@H](CO)[C@@H](O)[C@H](O)[C@H]1NC(C)=O)C(=O)N[C@@H](CCCNC(=N)N)C(=O)N[C@@H](CCCNC(=N)N)C(N)=O [Peptide 16, C18-S(GlcNAc)RR-NH2] (Stearoyl-Ser(βGlcNAc)-Arg-Arg-NH2)	64	512	256	77.45 ± 1.13	32 (≈ 36.1 µM)	16 (≈ 18.1 µM)	256	64 (≈ 72.2 µM)	22.12
CCCCCCCCCCCCCCCCCC(=O)N[C@@H](CCCNC(=N)N)C(=O)N[C@@H](CO[C@@H]1O[C@H](CO)[C@@H](O)[C@H](O)[C@H]1NC(C)=O)C(=O)N[C@@H](CCCNC(=N)N)C(N)=O [Peptide 17, C18-RS(GlcNAc)R-NH2] (Stearoyl-Arg-Ser(βGlcNAc)-Arg-NH2)	64	512	256	45.25 ± 0.59	32 (≈ 36.1 µM)	16 (≈ 18.1 µM)	128	16 (≈ 18.1 µM)	22.50
CCCCCCCCCCCCCCCCCC(=O)N[C@@H](CCCNC(=N)N)C(=O)N[C@@H](CCCNC(=N)N)C(=O)N[C@@H](CO[C@@H]1O[C@H](CO)[C@@H](O)[C@H](O)[C@H]1NC(C)=O)C(N)=O [Peptide 18, C18-RRS(GlcNAc)-NH2] (Stearoyl-Arg-Arg-Ser(βGlcNAc)-NH2)	128	256	128	48.04 ± 2.45	32 (≈ 36.1 µM)	16 (≈ 18.1 µM)	128	32 (≈ 36.1 µM)	22.67
